Assay results published in ChEMBL document CHEMBL5608163, “Structure modification of anoplin for fighting resistant bacteria” (Eur J Med Chem, 2024).
Values after ≈ are worked out from the molar mass of the structure shown. Square brackets hold non-standard residues; d marks the D form. Peptide text beside a SMILES is read from it. * marks the point of attachment. Pentadecanoyl = CCCCCCCCCCCCCCC(=O)*; NMeI = CC[C@H](C)[C@H](NC)C(=O)O; NMeL = CN[C@@H](CC(C)C)C(=O)O

What was measured:
[1] = test system: Staphylococcus aureus; assay: Antibacterial activity against Staphylococcus aureus ATCC 25923 assessed as reduction in bacterial growth incubated for 18 to 24 hrs by broth microdilution method; assay type: functional; conditions: time 18-24 hrs
[2] = test system: Escherichia coli; assay: Antibacterial activity against Escherichia coli ATCC 25922 assessed as reduction in bacterial growth by broth microdilution method; assay type: functional
[3] = Hemolytic activity in human RBC; assay type: toxicity, cell-based, Erythrocyte; conditions: red blood cells
[4] = (§1) Hemolytic activity in mouse Red blood cells incubated for 1 hr by microplate reader assay; assay type: toxicity, cell-based, Erythrocyte; conditions: red blood cells
[5] = test system: Staphylococcus aureus; assay: Antibacterial activity against Staphylococcus aureus ATCC 25923 assessed as reduction in bacterial cell growth measured for 18 hrs by Mueller-Hinton broth based two-fold serial dilution method; assay type: functional
[6] = test system: Bacillus subtilis; assay: Antibacterial activity against Bacillus subtilis ATCC 23857 assessed as reduction in bacterial cell growth measured for 18 hrs by Mueller-Hinton broth based two-fold serial dilution method; assay type: functional
[7] = test system: Escherichia coli; assay: Antibacterial activity against Escherichia coli ATCC 25922 assessed as reduction in bacterial cell growth measured for 18 hrs by Mueller-Hinton broth based two-fold serial dilution method; assay type: functional
[8] = test system: Pseudomonas aeruginosa; assay: Antibacterial activity against Pseudomonas aeruginosa ATCC 27853 assessed as reduction in bacterial cell growth measured for 18 hrs by Mueller-Hinton broth based two-fold serial dilution method; assay type: functional
[9] = test system: Klebsiella pneumoniae; assay: Antibacterial activity against Klebsiella pneumoniae ATCC 700603 assessed as reduction in bacterial cell growth measured for 18 hrs by Mueller-Hinton broth based two-fold serial dilution method; assay type: functional
[10] = test system: Staphylococcus aureus; assay: Antibacterial activity against Staphylococcus aureus ATCC 25923 assessed as reduction in bacterial growth incubated for 18 to 20 hrs by Mueller Hinton broth dilution method; assay type: functional; conditions: time 18-20 hrs
[11] = test system: Bacillus subtilis; assay: Antibacterial activity against Bacillus subtilis ATCC 23857 assessed as reduction in bacterial growth incubated for 18 to 20 hrs by Mueller Hinton broth dilution method; assay type: functional; conditions: time 18-20 hrs
[12] = test system: Escherichia coli; assay: Antibacterial activity against Escherichia coli ATCC 25922 assessed as reduction in bacterial growth incubated for 18 to 20 hrs by Mueller Hinton broth dilution method; assay type: functional; conditions: time 18-20 hrs
[13] = test system: Pseudomonas aeruginosa; assay: Antibacterial activity against Pseudomonas aeruginosa ATCC 27853 assessed as reduction in bacterial growth incubated for 18 to 20 hrs by Mueller Hinton broth dilution method; assay type: functional; conditions: time 18-20 hrs
[14] = test system: Erythrocyte; assay: as §1; assay type: toxicity, cell-based; conditions: erythrocyte, 1 h
[15] = test system: Klebsiella pneumoniae; assay: Antimicrobial activity against Klebsiella pneumoniae assessed as reduction in bacterial growth incubated for 18 to 20 hrs by Mueller-Hinton broth based microdilution method; assay type: functional; conditions: time 18-20 hrs

CC[C@H](C)[C@H](NC(=O)[C@H](CCCNC(=N)N)NC(=O)[C@H](CCCCN)NC(=O)[C@H](CC(C)C)NC(=O)[C@H](CC(C)C)NC(=O)CN)C(=O)N[C@@H](CCCCN)C(=O)N[C@@H](C)C(=O)N[C@@H](CC(C)C)C(=O)N[C@@H](CC(C)C)C(N)=O (H-GLLKRIKALL-NH2)
MIC [1]: 7.1 µM (≈ 7.98 µg/mL)
MIC [2]: 14.3 µM (≈ 16.1 µg/mL)
HC50 [3]: 86.5 µM

CCCCCCCCCCCCCCC(=O)NCC(=O)N[C@@H](CC(C)C)C(=O)N(C)[C@@H](CC(C)C)C(=O)N[C@@H](CCCCN)C(=O)N[C@@H](CCCNC(=N)N)C(=O)N(C)[C@H](C(=O)N[C@@H](CCCCN)C(=O)N[C@H](C(=O)N[C@@H](CC(C)C)C(=O)N[C@@H](CC(C)C)C(N)=O)[C@@H](C)O)[C@@H](C)CC (Pentadecanoyl-GL[NMeL]KR[NMeI]KTLL-NH2)
HC50 at 1 h [4]: 64 µM
MIC [5]: 8 µM (≈ 11.2 µg/mL)
MIC [6]: 4 µM (≈ 5.62 µg/mL)
MIC [7]: 16 µM (≈ 22.5 µg/mL)
MIC [8]: 16 µM (≈ 22.5 µg/mL)
MIC [9]: 16 µM (≈ 22.5 µg/mL)

CC[C@H](C)[C@H](NC(=O)[C@H](CCCNC(=N)N)NC(=O)[C@H](CCCCN)NC(=O)[C@H](CC(C)C)NC(=O)[C@H](CC(C)C)NC(=O)[C@H](C)N)C(=O)N[C@@H](CCCCN)C(=O)N[C@H](C(=O)N[C@@H](CC(C)C)C(=O)N[C@@H](CC(C)C)C(N)=O)[C@@H](C)O (H-ALLKRIKTLL-NH2)
MIC [1]: > 18 µM
MIC [2]: > 18 µM

CC[C@H](C)[C@H](NC(=O)[C@H](CCCNC(=N)N)NC(=O)[C@H](C)NC(=O)[C@H](CC(C)C)NC(=O)[C@H](CC(C)C)NC(=O)CN)C(=O)N[C@@H](CCCCN)C(=O)N[C@H](C(=O)N[C@@H](CC(C)C)C(=O)N[C@@H](CC(C)C)C(N)=O)[C@@H](C)O (H-GLLARIKTLL-NH2)
MIC [1]: 25.6 µM (≈ 28.1 µg/mL)
MIC [2]: 14.6 µM (≈ 16 µg/mL)

CC[C@H](C)[C@H](NC(=O)[C@H](CCCNC(=N)N)NC(=O)[C@H](CCCCN)NC(=O)[C@H](CC(C)C)NC(=O)[C@H](CC(C)C)NC(=O)CN)C(=O)N[C@@H](C)C(=O)N[C@H](C(=O)N[C@@H](CC(C)C)C(=O)N[C@@H](CC(C)C)C(N)=O)[C@@H](C)O (H-GLLKRIATLL-NH2)
MIC [1]: 10.1 µM (≈ 11.1 µg/mL)
MIC [2]: 10.1 µM (≈ 11.1 µg/mL)
HC50 [3]: 121 µM

CC(C)C[C@@H](NC(=O)[C@@H](CC(C)C)NC(=O)[C@@H](CCCCN)NC(=O)[C@@H](CCCCN)NC(=O)[C@@H](Cc1c[nH]c2ccccc12)NC(=O)[C@@H](CCCNC(=N)N)NC(=O)[C@@H](CCCCN)NC(=O)[C@@H](CC(C)C)NC(=O)[C@@H](CC(C)C)NC(=O)[C@H](N)Cc1c[nH]c2ccccc12)C(N)=O
MIC [10]: 16 µM (≈ 22.1 µg/mL)
MIC [11]: 4 µM (≈ 5.53 µg/mL)
MIC [12]: 8 µM (≈ 11.1 µg/mL)
MIC [13]: 8 µM (≈ 11.1 µg/mL)
HC10 [14]: > 200 µM

CC[C@H](C)[C@H](NC(=O)[C@@H](CCCNC(=N)N)NC(=O)[C@H](CCCCN)NC(=O)[C@H](CC(C)C)NC(=O)[C@H](CC(C)C)NC(=O)CN)C(=O)N[C@@H](CCCCN)C(=O)N[C@@H](C(=O)N[C@@H](CC(C)C)C(=O)N[C@@H](CC(C)C)C(N)=O)[C@H](C)O
MIC [10]: > 256 µM
MIC [11]: 32 µM (≈ 36.9 µg/mL)
MIC [12]: 256 µM (≈ 295 µg/mL)
MIC [13]: 128 µM (≈ 148 µg/mL)
MIC [15]: > 256 µM
HC10 [14]: > 300 µM

CC[C@H](C)[C@H](NC(=O)[C@H](CCCNC(=N)N)NC(=O)[C@H](CCCCN)NC(=O)[C@H](CC(C)C)NC(=O)[C@H](CC(C)C)NC(=O)CN)C(=O)N[C@@H](CCCCN)C(=O)N[C@H](C(=O)N[C@@H](C)C(=O)N[C@@H](CC(C)C)C(N)=O)[C@@H](C)O (H-GLLKRIKTAL-NH2)
MIC [1]: 27.9 µM (≈ 31 µg/mL)
MIC [2]: 44.1 µM (≈ 49 µg/mL)

CC[C@H](C)[C@H](NC(=O)[C@H](CCCNC(=N)N)NC(=O)[C@H](CCCCN)NC(=O)[C@H](CC(C)C)NC(=O)[C@H](C)NC(=O)CN)C(=O)N[C@@H](CCCCN)C(=O)N[C@H](C(=O)N[C@@H](CC(C)C)C(=O)N[C@@H](CC(C)C)C(N)=O)[C@@H](C)O (H-GALKRIKTLL-NH2)
MIC [1]: > 38.7 µM
MIC [2]: > 38.7 µM

CC[C@H](C)[C@H](NC(=O)[C@H](C)NC(=O)[C@H](CCCCN)NC(=O)[C@H](CC(C)C)NC(=O)[C@H](CC(C)C)NC(=O)CN)C(=O)N[C@@H](CCCCN)C(=O)N[C@H](C(=O)N[C@@H](CC(C)C)C(=O)N[C@@H](CC(C)C)C(N)=O)[C@@H](C)O (H-GLLKAIKTLL-NH2)
MIC [1]: 9.4 µM (≈ 10 µg/mL)
MIC [2]: 4.7 µM (≈ 5.02 µg/mL)
HC50 [3]: 151 µM

CC(C)C[C@H](NC(=O)[C@H](CC(C)C)NC(=O)[C@@H](NC(=O)[C@H](CCCCN)NC(=O)[C@H](C)NC(=O)[C@H](CCCNC(=N)N)NC(=O)[C@H](CCCCN)NC(=O)[C@H](CC(C)C)NC(=O)[C@H](CC(C)C)NC(=O)CN)[C@@H](C)O)C(N)=O (H-GLLKRAKTLL-NH2)
MIC [1]: > 36.9 µM
MIC [2]: > 36.9 µM
